The target in test [1] is T1, Caspase-3 (Homo sapiens, UniProt P42574).
T1 sequence (P42574 whole entry): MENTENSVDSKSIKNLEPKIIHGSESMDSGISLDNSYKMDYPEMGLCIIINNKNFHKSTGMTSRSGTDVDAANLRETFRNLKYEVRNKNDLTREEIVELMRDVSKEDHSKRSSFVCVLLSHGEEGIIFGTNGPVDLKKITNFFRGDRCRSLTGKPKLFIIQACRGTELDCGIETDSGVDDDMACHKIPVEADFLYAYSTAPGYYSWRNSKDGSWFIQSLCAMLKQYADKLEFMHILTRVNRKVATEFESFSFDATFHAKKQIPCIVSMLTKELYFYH
The format is functional.

The target in test [2] is T2, Sentrin-specific protease 7 (Homo sapiens, UniProt Q9BQF6).
T2 sequence (Q9BQF6 whole entry): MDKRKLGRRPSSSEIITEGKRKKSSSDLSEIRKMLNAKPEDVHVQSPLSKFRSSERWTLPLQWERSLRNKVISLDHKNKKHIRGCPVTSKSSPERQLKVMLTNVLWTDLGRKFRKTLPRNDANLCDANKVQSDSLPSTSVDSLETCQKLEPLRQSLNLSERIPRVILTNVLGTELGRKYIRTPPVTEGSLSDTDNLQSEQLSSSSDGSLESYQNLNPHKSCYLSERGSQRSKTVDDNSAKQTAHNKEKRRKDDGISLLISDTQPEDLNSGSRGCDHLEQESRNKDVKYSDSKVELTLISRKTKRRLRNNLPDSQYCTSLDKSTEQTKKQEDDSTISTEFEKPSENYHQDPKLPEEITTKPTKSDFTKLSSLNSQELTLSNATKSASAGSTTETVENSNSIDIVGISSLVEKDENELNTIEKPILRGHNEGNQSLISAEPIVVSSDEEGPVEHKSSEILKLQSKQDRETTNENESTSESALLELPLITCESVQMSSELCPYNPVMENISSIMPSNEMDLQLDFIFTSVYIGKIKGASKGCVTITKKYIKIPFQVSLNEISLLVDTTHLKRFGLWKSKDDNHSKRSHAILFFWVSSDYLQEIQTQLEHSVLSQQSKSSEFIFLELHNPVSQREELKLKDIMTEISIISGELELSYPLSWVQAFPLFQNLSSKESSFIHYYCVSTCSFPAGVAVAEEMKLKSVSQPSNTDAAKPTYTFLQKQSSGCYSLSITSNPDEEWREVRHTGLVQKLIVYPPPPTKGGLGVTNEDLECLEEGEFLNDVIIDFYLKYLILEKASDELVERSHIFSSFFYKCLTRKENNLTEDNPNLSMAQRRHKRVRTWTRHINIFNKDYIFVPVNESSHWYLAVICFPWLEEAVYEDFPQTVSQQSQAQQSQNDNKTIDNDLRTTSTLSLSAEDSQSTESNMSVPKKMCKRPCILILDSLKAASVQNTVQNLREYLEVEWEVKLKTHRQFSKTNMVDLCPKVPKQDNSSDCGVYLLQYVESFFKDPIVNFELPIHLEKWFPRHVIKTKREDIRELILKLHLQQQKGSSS
Kind of test: SENP7 protease inhibitors, SAR follow-up, biochemical, luminescence (AID 504497). The format is functional.

The target of test [3] is T1, Caspase-3. Kind of test: SAR Analysis of small molecule inhibitors of Sentrin-specific proteases (SENPs) using a Caspase-3 Selectivity assay. [Related pubchem assays (depositor defined):AID2540, AID2599, AID434973, AID489001]. Format: functional.
The target in another test is Cytochrome P450 2D6 (Homo sapiens, UniProt P10635).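 Note: CYP2D6 member of a cytochrome P450 panel assay.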
The target in test [4] is T3, Sentrin-specific protease 6 (Homo sapiens, UniProt Q9GZR1).
T3 sequence (Q9GZR1 whole entry): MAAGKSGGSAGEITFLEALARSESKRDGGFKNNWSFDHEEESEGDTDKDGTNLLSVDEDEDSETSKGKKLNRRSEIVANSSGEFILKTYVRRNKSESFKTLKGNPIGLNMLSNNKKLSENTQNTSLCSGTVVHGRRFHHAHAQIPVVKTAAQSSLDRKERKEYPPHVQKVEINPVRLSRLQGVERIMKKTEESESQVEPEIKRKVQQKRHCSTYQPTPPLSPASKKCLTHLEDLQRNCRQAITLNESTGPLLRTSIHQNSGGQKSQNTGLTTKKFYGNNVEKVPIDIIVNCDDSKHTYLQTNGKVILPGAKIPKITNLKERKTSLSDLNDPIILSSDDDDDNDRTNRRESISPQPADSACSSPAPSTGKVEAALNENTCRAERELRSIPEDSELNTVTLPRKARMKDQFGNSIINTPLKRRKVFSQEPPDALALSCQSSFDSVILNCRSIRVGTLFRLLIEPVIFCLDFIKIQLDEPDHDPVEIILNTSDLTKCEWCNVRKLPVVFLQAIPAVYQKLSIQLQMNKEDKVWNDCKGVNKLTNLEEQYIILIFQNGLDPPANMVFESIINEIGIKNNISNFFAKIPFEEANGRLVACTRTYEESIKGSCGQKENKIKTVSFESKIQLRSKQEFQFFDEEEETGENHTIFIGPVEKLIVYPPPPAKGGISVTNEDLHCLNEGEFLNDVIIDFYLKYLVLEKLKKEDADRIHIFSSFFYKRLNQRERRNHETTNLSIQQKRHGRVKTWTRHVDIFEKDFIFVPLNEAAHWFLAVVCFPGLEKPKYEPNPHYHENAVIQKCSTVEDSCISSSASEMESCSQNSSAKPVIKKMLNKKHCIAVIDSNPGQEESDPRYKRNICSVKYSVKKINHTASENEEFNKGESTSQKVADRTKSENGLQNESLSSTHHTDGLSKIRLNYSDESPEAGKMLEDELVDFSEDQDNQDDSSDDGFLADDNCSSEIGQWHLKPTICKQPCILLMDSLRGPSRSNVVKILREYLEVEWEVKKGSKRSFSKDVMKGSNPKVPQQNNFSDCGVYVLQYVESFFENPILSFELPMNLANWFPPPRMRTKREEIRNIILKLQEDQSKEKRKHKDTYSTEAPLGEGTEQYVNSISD
Put plainly: SAR Analysis of small molecule inhibitors of Sentrin-specific protease 6 (SENP6) using a Luminescent assay. [Related pubchem assays (depositor defined):AID2582, AID2599]. The format is functional.

In a further test the target is Cytochrome P450 2C9 (Homo sapiens, UniProt P11712).
For test [5], the target named is T4, Sentrin-specific protease 8 (Homo sapiens, UniProt Q96LD8).
T4 sequence (Q96LD8 whole entry): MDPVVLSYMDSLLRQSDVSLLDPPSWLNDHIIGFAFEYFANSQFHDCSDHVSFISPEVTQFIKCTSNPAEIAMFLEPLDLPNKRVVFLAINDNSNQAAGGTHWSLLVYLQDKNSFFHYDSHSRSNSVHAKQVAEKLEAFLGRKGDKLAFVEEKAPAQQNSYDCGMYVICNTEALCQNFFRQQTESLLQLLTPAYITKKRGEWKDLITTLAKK
Format: functional.

Test [6] has as its target T4, Sentrin-specific protease 8. Kind of test: SENP8 protease inhibitors, SAR follow-up, biochemical, luminescence (AID 504501). The format is functional.
The target in another test is Cytochrome P450 2C19 (Homo sapiens, UniProt P33261). Put plainly: Cytochrome panel assay with activity outcomes. Panel member name: p450-cyp2c19 Compounds with AC50 equal or less than 10 uM are considered active. To be noted: read-out: AC50. Format: functional.
Test [7] addresses T3, Sentrin-specific protease 6. Format: functional.
Test [8] deals with T2, Sentrin-specific protease 7. Format: functional.
Test [9] concerns the target T5, Insulin-degrading enzyme (Homo sapiens, UniProt P14735).
T5 sequence (P14735 whole entry): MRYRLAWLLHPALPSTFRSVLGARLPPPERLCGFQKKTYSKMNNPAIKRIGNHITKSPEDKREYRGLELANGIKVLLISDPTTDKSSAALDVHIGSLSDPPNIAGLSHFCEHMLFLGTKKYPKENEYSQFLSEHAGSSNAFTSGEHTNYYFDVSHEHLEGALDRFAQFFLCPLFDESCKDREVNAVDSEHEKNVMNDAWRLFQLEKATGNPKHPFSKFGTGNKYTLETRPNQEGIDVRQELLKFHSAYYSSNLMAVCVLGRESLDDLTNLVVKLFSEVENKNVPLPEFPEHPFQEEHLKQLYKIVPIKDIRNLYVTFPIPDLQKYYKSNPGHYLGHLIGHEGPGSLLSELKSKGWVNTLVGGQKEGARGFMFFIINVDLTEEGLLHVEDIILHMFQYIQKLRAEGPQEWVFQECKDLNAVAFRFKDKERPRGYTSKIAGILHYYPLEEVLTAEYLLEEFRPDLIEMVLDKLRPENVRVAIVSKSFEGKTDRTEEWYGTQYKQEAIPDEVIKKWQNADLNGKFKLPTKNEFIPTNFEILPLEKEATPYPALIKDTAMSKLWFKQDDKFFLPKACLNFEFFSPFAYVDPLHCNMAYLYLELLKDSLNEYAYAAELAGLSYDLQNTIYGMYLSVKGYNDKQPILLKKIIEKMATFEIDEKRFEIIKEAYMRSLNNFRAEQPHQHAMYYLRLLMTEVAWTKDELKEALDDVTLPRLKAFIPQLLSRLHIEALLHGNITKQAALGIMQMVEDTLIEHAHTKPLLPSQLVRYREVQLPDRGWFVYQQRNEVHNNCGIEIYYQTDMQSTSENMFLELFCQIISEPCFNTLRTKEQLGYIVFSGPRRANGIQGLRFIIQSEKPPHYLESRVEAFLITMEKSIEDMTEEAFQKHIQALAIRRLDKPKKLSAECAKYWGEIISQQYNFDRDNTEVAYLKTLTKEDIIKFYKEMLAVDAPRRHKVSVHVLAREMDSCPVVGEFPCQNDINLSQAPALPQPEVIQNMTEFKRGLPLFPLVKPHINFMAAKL
Put plainly: activators of endogenous IDE in HEK cells, dose response, cell-based, fluorescence polarization (AID 588439). Format: functional. A general note: Polarisation of emitted light reports the rotation of a fluorescent probe.

Another test concerns the target Large T antigen (Simian virus 40, UniProt P03070). The format is functional, Betapolyomavirus macacae.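 Note: Confirmatory-stage PubChem screen for compounds that inhibit SV40 T antigen.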
The subject of test [10] is HEK293. Put plainly: HEK cell cytotoxicity by LDH release, dose response, cytotoxicity control for IDE activator project, fluorescence, HEK cells (AID 588440).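 Note: cytotoxicity by LDH release measuring loss of membrane integrity.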 Format: functional, cell-based. Conditions: Homo sapiens. In general terms: Release of lactate dehydrogenase indicates damage to the cell membrane.
Another test concerns the target T6, Streptokinase A (Streptococcus pyogenes serotype M1, UniProt P10520).
T6 sequence (P10520 whole entry): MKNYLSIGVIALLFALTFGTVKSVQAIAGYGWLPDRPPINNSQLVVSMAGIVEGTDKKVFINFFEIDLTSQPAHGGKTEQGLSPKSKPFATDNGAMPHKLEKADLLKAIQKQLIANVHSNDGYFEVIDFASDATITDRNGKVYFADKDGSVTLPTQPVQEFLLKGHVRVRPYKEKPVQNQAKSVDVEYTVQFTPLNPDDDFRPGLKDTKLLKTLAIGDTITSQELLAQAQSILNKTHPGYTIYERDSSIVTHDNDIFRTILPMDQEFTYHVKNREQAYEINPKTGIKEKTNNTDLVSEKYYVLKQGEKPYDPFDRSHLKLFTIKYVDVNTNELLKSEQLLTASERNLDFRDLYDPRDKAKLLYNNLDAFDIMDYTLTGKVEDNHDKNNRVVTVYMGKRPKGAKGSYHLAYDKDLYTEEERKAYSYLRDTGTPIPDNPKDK
Put plainly: S. pyogenes streptokinase expression inhibitors, potency, dose response, plasminogen activation absorbance, OD405 (AID 1914).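 Note: secreted streptokinase activity via plasminogen activation per viability signal from cell pellet.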 Format: functional, Streptococcus pyogenes M1 GAS.

A further test has as its system CHO. Put plainly: cytotoxicity in TLR9-MyD88 CHO cells, dose response, cytotoxicity control for TLR9-MyD88 binding inhibitor project, cell-based, luminescence (AID 588339).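 Note: CHO cells stably coexpressing TLR9 and MyD88 fusions from primary screen; compound exposure lasted 48 hours before viability readout.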 The format is functional, hamster. Conditions: Cricetulus griseus.
In test [11] the test system is HEK293. Kind of test: optical interference in Abeta FP readout, dose response, artefact control for IDE activator project, biochemical, fluorescence polarization (AID 588442). Format: functional, cell-based. Conditions: Homo sapiens.
Test [12] deals with T5, Insulin-degrading enzyme. Put plainly: activators of recombinant IDE enzyme, dose response, counter-screen for IDE activator project, biochemical, fluorescence polarization (AID 588681).
Another test has as its target Prothrombin (Bos taurus, UniProt P00735). Kind of test: thrombin inhibition, dose response, biochemical, fluorescence polarization, uHTS hits (AID 602369). The format is functional.
Test [13] deals with 72 kDa type IV collagenase (Homo sapiens, UniProt P08253). Kind of test: Dose Response validation of uHTS RPN11 inhibitor hits using a MMP-2 Fluorescence assay. Format: functional.
In test [14] the target is 26S proteasome non-ATPase regulatory subunit 14 (Homo sapiens, UniProt O00487). Put plainly: inhibition of proteasome subunit RPN11 – biochemical, fluorescence polarization, uHTS hits, confirmation (AID 602368). Format: functional.
In test [15] the test system is Streptococcus sp. 'group A'. Put plainly: growth inhibition of control SK(-) GAS strain, dose response, counter-screen for streptokinase expression inhibitor project, luminescence, kanamycin, BacTiterGlo, confirmation (AID 1900). Format: functional, organism-based.
The subject of the next test is Streptococcus. Kind of test: Group A Streptococcus viability loss, dose response, counter-screen for streptokinase expression inhibitor project, luminescence, BacTiterGlo (AID 1915).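 Note: potency for reduction of bacterial viability or growth.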 The format is functional, organism-based. For orientation: A counterscreen serves to expose hits that act by an unwanted route or on another target.

Active and inactive are the calls of the source.

Sequence of 26S proteasome non-ATPase regulatory subunit 14 (O00487 whole entry): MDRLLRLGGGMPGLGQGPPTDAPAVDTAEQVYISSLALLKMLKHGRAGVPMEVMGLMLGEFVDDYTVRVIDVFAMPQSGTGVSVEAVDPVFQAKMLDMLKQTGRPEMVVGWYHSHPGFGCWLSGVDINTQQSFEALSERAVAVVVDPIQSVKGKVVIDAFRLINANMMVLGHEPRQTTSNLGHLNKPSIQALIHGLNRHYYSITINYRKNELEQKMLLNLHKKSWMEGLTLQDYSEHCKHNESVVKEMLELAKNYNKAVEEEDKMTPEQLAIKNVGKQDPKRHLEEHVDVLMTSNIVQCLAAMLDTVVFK
Sequence of Large T antigen (P03070 whole entry): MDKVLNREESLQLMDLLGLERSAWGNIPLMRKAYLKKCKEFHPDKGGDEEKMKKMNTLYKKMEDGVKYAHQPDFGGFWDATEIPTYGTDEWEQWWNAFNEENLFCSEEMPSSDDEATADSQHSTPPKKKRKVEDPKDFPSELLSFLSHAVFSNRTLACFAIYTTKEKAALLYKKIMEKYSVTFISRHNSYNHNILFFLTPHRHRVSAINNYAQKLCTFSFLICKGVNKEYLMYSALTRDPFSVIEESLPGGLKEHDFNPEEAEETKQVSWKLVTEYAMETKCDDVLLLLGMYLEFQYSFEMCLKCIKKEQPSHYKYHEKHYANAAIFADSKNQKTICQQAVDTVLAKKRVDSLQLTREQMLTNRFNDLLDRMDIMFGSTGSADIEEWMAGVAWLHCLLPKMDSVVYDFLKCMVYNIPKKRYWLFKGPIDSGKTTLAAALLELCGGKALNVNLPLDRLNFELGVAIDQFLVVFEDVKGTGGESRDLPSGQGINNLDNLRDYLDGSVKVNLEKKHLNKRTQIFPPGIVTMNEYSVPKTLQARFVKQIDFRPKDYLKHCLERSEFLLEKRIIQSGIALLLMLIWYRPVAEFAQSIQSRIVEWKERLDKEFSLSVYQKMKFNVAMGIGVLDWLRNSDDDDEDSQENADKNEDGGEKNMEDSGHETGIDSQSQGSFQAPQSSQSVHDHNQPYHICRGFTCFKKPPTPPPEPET
Sequence of 72 kDa type IV collagenase (P08253 whole entry): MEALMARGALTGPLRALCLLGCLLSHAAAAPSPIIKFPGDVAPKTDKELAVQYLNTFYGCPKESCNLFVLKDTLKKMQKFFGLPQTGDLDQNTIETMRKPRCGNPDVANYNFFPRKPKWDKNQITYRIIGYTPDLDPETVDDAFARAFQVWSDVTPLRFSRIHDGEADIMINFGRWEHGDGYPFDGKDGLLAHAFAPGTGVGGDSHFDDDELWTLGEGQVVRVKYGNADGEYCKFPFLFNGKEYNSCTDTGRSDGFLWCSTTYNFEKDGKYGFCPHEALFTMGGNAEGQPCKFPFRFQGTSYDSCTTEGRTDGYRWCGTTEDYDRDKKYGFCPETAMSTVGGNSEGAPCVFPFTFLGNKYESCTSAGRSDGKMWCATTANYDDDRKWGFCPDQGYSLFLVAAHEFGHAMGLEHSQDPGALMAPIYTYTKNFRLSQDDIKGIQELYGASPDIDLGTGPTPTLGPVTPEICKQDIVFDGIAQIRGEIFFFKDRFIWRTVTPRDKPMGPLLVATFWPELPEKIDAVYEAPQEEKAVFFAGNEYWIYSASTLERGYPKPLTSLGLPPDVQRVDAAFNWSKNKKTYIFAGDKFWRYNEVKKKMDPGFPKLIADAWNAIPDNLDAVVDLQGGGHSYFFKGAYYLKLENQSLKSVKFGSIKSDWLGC
Sequence of Cytochrome P450 2C19 (P33261 whole entry): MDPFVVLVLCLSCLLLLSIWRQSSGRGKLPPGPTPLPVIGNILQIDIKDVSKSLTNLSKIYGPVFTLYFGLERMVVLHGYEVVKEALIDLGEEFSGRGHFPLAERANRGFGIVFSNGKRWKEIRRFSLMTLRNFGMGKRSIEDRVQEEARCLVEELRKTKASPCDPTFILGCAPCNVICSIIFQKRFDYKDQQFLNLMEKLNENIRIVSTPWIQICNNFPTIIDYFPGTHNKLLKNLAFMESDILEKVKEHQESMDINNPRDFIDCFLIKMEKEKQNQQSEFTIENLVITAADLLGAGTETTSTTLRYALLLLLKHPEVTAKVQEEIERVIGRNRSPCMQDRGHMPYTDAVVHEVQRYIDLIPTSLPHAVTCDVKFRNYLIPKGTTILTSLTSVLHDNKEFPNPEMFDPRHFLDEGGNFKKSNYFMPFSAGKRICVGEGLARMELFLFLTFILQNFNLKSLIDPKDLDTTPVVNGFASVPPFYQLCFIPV
Sequence of Cytochrome P450 2C9 (P11712 whole entry): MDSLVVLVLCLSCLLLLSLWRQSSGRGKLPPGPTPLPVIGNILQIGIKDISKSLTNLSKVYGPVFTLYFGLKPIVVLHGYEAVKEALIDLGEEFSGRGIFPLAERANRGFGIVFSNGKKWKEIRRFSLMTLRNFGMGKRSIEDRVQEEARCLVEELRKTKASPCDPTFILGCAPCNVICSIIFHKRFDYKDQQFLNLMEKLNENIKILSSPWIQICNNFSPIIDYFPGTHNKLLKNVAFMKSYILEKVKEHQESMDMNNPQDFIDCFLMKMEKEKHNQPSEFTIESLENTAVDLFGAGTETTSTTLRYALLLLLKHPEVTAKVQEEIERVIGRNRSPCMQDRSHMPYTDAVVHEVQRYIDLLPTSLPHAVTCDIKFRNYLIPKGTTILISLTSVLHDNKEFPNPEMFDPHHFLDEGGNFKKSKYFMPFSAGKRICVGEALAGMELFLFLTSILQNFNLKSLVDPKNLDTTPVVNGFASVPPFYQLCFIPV
Sequence of Cytochrome P450 2D6 (P10635 whole entry): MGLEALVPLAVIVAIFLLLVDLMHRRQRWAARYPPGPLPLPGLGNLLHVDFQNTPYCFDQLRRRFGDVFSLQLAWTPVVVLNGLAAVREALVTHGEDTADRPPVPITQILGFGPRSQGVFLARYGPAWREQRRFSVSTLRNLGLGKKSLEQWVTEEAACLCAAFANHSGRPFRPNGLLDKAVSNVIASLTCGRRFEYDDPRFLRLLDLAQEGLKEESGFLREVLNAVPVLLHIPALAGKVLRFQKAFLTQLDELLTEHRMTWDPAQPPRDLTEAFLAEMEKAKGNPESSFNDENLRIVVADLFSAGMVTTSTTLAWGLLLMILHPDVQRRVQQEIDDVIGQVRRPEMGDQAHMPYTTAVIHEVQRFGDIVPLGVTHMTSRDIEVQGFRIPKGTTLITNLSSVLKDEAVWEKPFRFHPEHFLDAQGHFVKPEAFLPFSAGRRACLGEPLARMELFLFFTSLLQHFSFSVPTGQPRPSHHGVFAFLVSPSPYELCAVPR

With `Cc1ccc(/C=C/c2nnc(-c3cccs3)o2)cc1`, the IC50 (commonly the concentration that inhibits the measured activity by half) was > 100 µM (inactive) at Caspase-3 [1]; 1.7 µM (active) in [2]; 2 µM (active) at Caspase-3 [3]; 2 µM (active) in [4]; 24.3 µM (active) in [5]; 2.1 µM (active) in test [6]. In addition, the IC50 in test [7] and in test [8] was > 100 µM (inactive) each time. For the same compound, the AC50 (usually the midpoint of the concentration-response curve, whichever way the signal moves) at Cytochrome P450 2D6 was 25.1 µM (inconclusive); on Cytochrome P450 2C9, 10 µM (inconclusive); on Cytochrome P450 2C19 it was 25.1 µM (inconclusive).
In the case of `C#CCOCCOCCOCCNc1nc(N2CCN(C(=O)CCCCCCCCCCNC(=O)[C@H](CCCCN)n3cc(C[C@@H](C)CC)nn3)CC2)nc(N2CCN(C(=O)CCCCCCCCCCNC(=O)[C@H](CCCCN)n3cc(C[C@@H](C)CC)nn3)CC2)n1`, the EC50 (usually the concentration giving half of the maximal effect) was > 2.03 µM (active) on Insulin-degrading enzyme [9]; 13.9 µM (active) on Streptokinase A; > 54.7 µM (inactive) in the test on HEK293 [11]; 9.71 µM (active) at Insulin-degrading enzyme [12]; 2.86 µM (active) in test [15]; > 150 µM (not active) with Streptococcus. The IC50 on Large T antigen was 36.5 µM (active); in the test on HEK293 [10], 4.19 µM (active); in the test on CHO it was 5.63 µM (active); at Prothrombin, 24.5 µM (active); in test [13] it was > 100 µM (inactive); in test [14], 16.2 µM (active).

These data come from ChEMBL document CHEMBL1201862, “PubChem BioAssay data set” (2004).
